Measured values taken from PMC7873251, “CXCR7 ameliorates myocardial infarction as a β-arrestin-biased receptor” (Scientific Reports, 2021).
pEC50: −log10 of the molar value. “Also recorded” adds a separate entry of the source.

What was measured:
[1] = test system: ERK (via rat CXCR7 expression plasmid); assay: ERK phosphorylation (pERK/tERK immunoblot) in CXCR7-transfected HEK293 cells; assay type: cell-based, HEK293 cells (human embryonic kidney); settings: CXCL12 100 nM
Method: HEK293 cells (ATCC CRL-11268) were used for the β-arrestin recruitment assay, as previously described. In brief, HEK293 cells were transfected with human β-arrestin-2-ω and human CXCR7-α. […] Luminescence was measured in an ARVO X3 plate reader (PerkinElmer, Waltham, MA, USA). In addition, HEK293 cells were transfected with a rat CXCR7 expression plasmid using Lipofectamine 3000 (Thermo Fisher Scientific). The CXCR7 expression plasmid was synthesized by amplifying a rat Cxcr7 mRNA sequence (RefSeq: NM_053352.1) with a FLAG tag (forward primer: 5′-[…]-3′, reverse primer: 5′-[…]-3′) from cDNA prepared from total RNA isolated from neonatal rat heart and inserting it in pShuttle-CMV (#16403, Addgene, Watertown, MA, USA). The cells were cultured for 36 h.
Western blotting was performed as previously described. Tissues and cells were homogenized in ice-cold RIPA buffer containing protease inhibitor (cOmplete Protease Inhibitor Cocktail, Merck) and phosphatase inhibitor (PhosSTOP, Sigma). Supernatants were collected after centrifugation and mixed with an equal amount of loading buffer (125 mM Tris–HCl pH 6.8, 30% glycerol, 10% SDS, and 0.6 M DTT). […] Signals were detected with the Pierce ECL Prime system (GE Healthcare) in a LAS4000 instrument (GE Healthcare). Band densities were analyzed using the ImageJ software (National Institutes of Health, Bethesda, MD, USA).

CXCR4 = settings: via CXCR4; cited from earlier work
From the text: (§1) Recently, the importance of chemokines and their receptors in cardiovascular diseases has been pointed out.

heart failure patients = settings: cited from earlier work
From the text: (§2) There are many seven-transmembrane receptors (7TMRs), such as adrenergic receptors and angiotensin II receptors, in the heart, and they play various critical roles in cardiac function and morphology[1],[2]. […] The roles of ACKRs are largely unknown, and only ACKR3, also known as CXC chemokine receptor 7 (CXCR7), has be ...

adrenergic receptors = settings: cited from earlier work
From the text: as §2

[2] = test system: CC chemokine receptor-like 2 (CCRL2); settings: cited from earlier work
From the text: In this study, we focused on CXCR7 because of its abundant expression in the heart and its unique character as a 7TMR. […] As a 7TMR, the β1-adrenergic receptor plays critical roles in the heart[21],[22]; however, its expression level was tenfold lower than that of Cxcr7.

ERK = ERK phosphorylation (pERK/tERK immunoblot) in neonatal rat cardiomyocytes (NRCMs); assay type: cell-based, rat (Wistar); settings: 30-min pretreatment with barbadin (50 M [sic]), then 10 min TC14012 (printed 3 M), n = 4
Method: NRCMs and neonatal rat fibroblasts were prepared from 1-day-old Wistar rats (Takasugi Experimental Animal Supply Co., Saitama, Japan), as previously described. Briefly, cardiac cells were dispersed by digestion with collagenase type II (Worthington Biochemical, Lakewood, NJ, USA) and incubated at 37 °C for 80 min to divide the supernatant cells, which are rich in cardiomyocytes, and the attached cells, which are rich in cardiac fibroblasts. The supernatant NRCMs were cultured on gelatin-coated dishes at 37 °C in Dulbecco’s modified Eagle’s medium (DMEM; Nacalai Tesque, Kyoto, Japan) supplemented with 10% fetal calf serum for 36 h and confirmed on the basis of beating activity. After 12 h of starvation, the NRCMs were treated with TC14012 (Tocris Bioscience, Bristol, UK). Attached cells rich in cardiac fibroblasts were subcultured three times to increase their purity. We added vehicle (DMSO) or barbadin (MedChemExpress, New Jersey, USA) 30 min before stimulation.
Western blotting was performed as previously described. […] Signals were detected with the Pierce ECL Prime system (GE Healthcare) in a LAS4000 instrument (GE Healthcare). Band densities were analyzed using the ImageJ software (National Institutes of Health, Bethesda, MD, USA).

[3] = test system: CC chemokine receptor 2-positive macrophages; settings: pressure-overload heart failure model; cited from earlier work
From the text: as §1

human CXCR7 = target: T1, human CXCR7 (Homo sapiens, UniProt P25106); assay: β-arrestin recruitment assay of CXCR7 (luminescence, HEK293); assay type: cell-based; settings: HEK293 cells transfected with human β-arrestin-2-ω and human CXCR7-α, 37 °C for 90 min, then Gal-Screen 25 °C 90 min, n = 3 independent, read-out: EC50 for coupling of CXCR7 with β-arrestin (β-arrestin recruitment)
T1 construct: expressed in transfected cells; host or cells: HEK293 cells (ATCC CRL-11268)
Method: HEK293 cells (ATCC CRL-11268) were used for the β-arrestin recruitment assay, as previously described[52]. In brief, HEK293 cells were transfected with human β-arrestin-2-ω and human CXCR7-α. […] Luminescence was measured in an ARVO X3 plate reader (PerkinElmer, Waltham, MA, USA).

[4] = test system: type 1 angiotensin II receptor; settings: cited from earlier work
From the text: There are many seven-transmembrane receptors (7TMRs), such as adrenergic receptors and angiotensin II receptors, in the heart, and they play various critical roles in cardiac function and morphology[1],[2]. […] The roles of ACKRs are largely unknown, and only ACKR3, also known as CXC chemokine receptor 7 (CXCR7), has be ... || There are numerous reports on biased agonists. Biased agonism occurs when two ligands share one receptor, but transmit different signals. […] However, there are a few natural β-arrestin-biased agonists and very few 7TMRs that activate intracellular signaling only through β-arr ...

cardiac hypertrophy = settings: cited from earlier work
From the text: There are numerous reports on biased agonists. Biased agonism occurs when two ligands share one receptor, but transmit different signals. […] However, there are a few natural β-arrestin-biased agonists and very few 7TMRs that activate intracellular signaling only through β-arr ...

T1 sequence (P25106 whole entry): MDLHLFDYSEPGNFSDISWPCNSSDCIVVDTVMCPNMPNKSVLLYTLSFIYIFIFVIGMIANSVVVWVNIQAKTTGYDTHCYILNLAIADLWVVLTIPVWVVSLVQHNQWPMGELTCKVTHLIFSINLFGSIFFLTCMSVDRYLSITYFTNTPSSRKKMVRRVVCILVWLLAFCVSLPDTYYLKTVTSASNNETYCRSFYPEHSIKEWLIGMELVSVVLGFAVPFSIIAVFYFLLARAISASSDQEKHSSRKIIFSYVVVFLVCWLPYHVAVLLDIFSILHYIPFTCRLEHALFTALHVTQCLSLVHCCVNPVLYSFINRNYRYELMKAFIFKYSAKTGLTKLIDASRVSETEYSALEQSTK
T1 sequence (P32121 whole entry partner): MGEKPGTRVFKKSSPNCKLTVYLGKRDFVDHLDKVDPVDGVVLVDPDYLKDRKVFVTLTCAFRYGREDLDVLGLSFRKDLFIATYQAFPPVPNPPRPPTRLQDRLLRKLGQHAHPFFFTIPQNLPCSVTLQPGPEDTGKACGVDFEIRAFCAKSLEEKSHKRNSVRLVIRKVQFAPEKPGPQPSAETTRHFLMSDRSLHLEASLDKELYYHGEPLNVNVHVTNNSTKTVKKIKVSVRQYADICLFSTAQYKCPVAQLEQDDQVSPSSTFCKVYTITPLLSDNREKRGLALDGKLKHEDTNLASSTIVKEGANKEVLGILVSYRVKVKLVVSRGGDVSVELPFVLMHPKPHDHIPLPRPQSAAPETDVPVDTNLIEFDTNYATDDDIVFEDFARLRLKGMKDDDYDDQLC

## CXCL12: a natural ligand of CXCR4 and CXCR7
[1]; HEK293 cells with CXCR7 expression plasmid, n = 4
  time of peak ERK activity after stimulation: 5 min
[1]; HEK293 cells, rat CXCR7 expression plasmid (various amounts), n = 3
  ERK activation (pERK/tERK): activated ERK in a CXCR7 expression plasmid-dose-dependent manner
CXCR4
  protection of the heart from hypoxia: protects the heart from hypoxia

## COc1ccccc1OCCNCC(O)COc1cccc2[nH]c3ccccc3c12 (centres unmarked) [carvedilol]
Heart failure patients
  effectiveness in heart failure patients: very effective for the treatment of heart failure patients
Adrenergic receptors
  adrenergic receptor blockade and β-arrestin signaling: not only blocks adrenergic receptors, but also activates cardioprotective signals, including ERK, through β-arrestin

## chemerin: ligand of CCRL2
[2]
  binding to CCRL2: it does not bind to chemokines, but to chemerin

## Nn1cnc2scc(-c3ccc(Cc4ccccc4)cc3)c2c1=O [barbadin]
ERK
  inhibition of TC14012-induced ERK activation: abolished TC14012-induced ERK activation; also recorded: completely suppressed

## CC chemokine ligand 2: chemokine that induced accumulation of CC chemokine receptor 2-positive macrophages
[3]
  accumulation of CCR2-positive macrophages: induced the accumulation of CC chemokine receptor 2-positive macrophages

## N=C(N)NCCC[C@H](NC(=O)[C@@H]1CSSC[C@H](NC(=O)[C@H](Cc2ccc3ccccc3c2)NC(=O)[C@H](CCCNC(=N)N)NC(=O)[C@@H](N)CCCNC(=N)N)C(=O)N[C@@H](Cc2ccc(O)cc2)C(=O)N[C@@H](CCCNC(N)=O)C(=O)N[C@@H](CCCCN)C(=O)N[C@H](CCCNC(N)=O)C(=O)N2CCC[C@H]2C(=O)N[C@@H](Cc2ccc(O)cc2)C(=O)N[C@@H](CCCNC(=N)N)C(=O)N[C@@H](CCCNC(N)=O)C(=O)N1)C(N)=O [TC14012]
Human CXCR7
  pEC50: 7.32

## angiotensin-(1-7): a metabolite of angiotensin II
[4]
  G protein versus β-arrestin activation compared with angiotensin II: binds to type 1 angiotensin II receptor, but fails to activate G proteins, and selectively promotes β-arrestin activation compared with angiotensin II
Cardiac hypertrophy
  cardiac hypertrophy: attenuates cardiac hypertrophy
